Laboratory results taken from the NIST ThermoML archive (doi:10.1016/j.jct.2012.02.023).
± gives the expanded uncertainty stated by the source.

Settings: Liquid; for speed of sound / mass density: 101.33 kPa; for speed of sound: Sing-around technique in a fixed-path interferometer; for mass density: Vibrating tube method; for vapor or sublimation pressure: Closed cell (Static) method

speed of sound (293.15 K) [m/s] | mass density (293.15 K) [kg/m3] | speed of sound (303.15 K) [m/s] | mass density (303.15 K) [kg/m3] | speed of sound (313.15 K) [m/s] | mass density (313.15 K) [kg/m3] | speed of sound (323.15 K) [m/s] | mass density (323.15 K) [kg/m3] | vapor or sublimation pressure (303.15 K) [kPa] | vapor or sublimation pressure (323.15 K) [kPa] | SMILES
1598.5 ± 1.6 | 1185.65 ± 0.38 | 1573.8 ± 1.6 | 1178.86 ± 0.38 | 1550.1 ± 1.6 | 1172.11 ± 0.37 | 1527 ± 1.6 | 1165.37 ± 0.37 | – | – | CCCC[n+]1cccc(C)c1.F[B-](F)(F)F [1-butyl-3-methylpyridinium tetrafluoroborate]
1611.8 ± 1.6 | 1185.92 ± 0.38 | 1586.7 ± 1.6 | 1179.12 ± 0.38 | 1562.8 ± 1.6 | 1172.12 ± 0.37 | 1539.3 ± 1.6 | 1165.52 ± 0.37 | – | – | CCCC[n+]1ccc(C)cc1.F[B-](F)(F)F [1-butyl-4-methylpyridinium tetrafluoroborate]
1160.1 ± 1.2 | 789.481 ± 0.15 | 1127.2 ± 1.2 | 781.302 ± 0.15 | 1093.6 ± 1.2 | 772.569 ± 0.15 | 1060.4 ± 1.2 | 763.647 ± 0.16 | 10.47 ± 0.045 | 29.57 ± 0.067 | CCO [ethanol]
1118.8 ± 1.2 | 791.243 ± 0.12 | 1086 ± 1.1 | 781.813 ± 0.13 | 1053.5 ± 1.1 | 772.287 ± 0.13 | 1021.5 ± 1.1 | 762.628 ± 0.14 | 21.93 ± 0.08 | 55.78 ± 0.12 | CO [methanol]
